In patent US12570642B2, “GLP-IR modulating compounds” (Gilead Sciences, Inc., priority 2021, dated 2026):
pEC50: −log10 of the molar value.

Target: GLP-1R (Homo sapiens, UniProt P43220)
Experiment: GLP-1R Activation - cAMP Assay
Assay type: cell-based
Details: cAMP increase in CHO cells stably expressing GLP-1R; each compound run on one of the two cAMP assays (Assay 1 or Assay 2, not specified)
How it was run: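 cAMP rise read by HTRF after 30 min agonist exposure (10-point titration, 37 °C) in HBSS/20 mM Hepes/0.1% BSA, following 1 h pre-incubation. Cells: stable GLP-1R CHO line, 1,000/well, seeded overnight. Sigmoidal fit of response vs log concentration gives EC50.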

Sequence of GLP-1R (P43220 24-463): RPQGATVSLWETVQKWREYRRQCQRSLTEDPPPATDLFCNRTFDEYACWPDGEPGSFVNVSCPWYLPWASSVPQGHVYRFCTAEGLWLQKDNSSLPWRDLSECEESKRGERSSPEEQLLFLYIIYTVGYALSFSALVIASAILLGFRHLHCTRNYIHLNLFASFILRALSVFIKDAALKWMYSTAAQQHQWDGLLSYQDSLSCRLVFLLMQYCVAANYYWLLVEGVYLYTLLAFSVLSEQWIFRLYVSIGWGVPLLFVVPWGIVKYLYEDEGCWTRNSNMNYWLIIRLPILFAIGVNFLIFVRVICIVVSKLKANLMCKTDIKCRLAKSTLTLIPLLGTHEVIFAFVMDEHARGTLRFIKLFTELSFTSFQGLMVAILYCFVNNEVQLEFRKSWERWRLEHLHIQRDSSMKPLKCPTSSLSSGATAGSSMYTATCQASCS

Row | SMILES | pEC50
1 | CN(C)C(=O)[C@@H]1COC[C@@H]1n1c(Cc2cc(F)c(-c3cccc(OCc4ccc(C#N)cc4F)n3)cc2F)nc2ccc(C(=O)O)cc21 (racemic) [Example 76, 2-(4-(6-((4-cyano-2-fluorobenzyl)oxy)pyridin-2-yl)-2,5-difluorobenzyl)-1-((3R,4S)-4-(dimethylcarbamoyl)tetrahydrofuran-3-yl)-1H-benzo[d]imidazole-6-carboxylic Acid] | 7.00
2 | CC1(C)COC[C@H]1n1c(Cc2ccc(-c3ccc(F)c(OCc4ccc(C#N)cc4)n3)cc2F)nc2ccc(C(=O)O)cc21 [Example 370, (S)-2-(4-(6-((4-cyanobenzyl)oxy)-5-fluoropyridin-2-yl)-2-fluorobenzyl)-1-(4,4-dimethyltetrahydrofuran-3-yl)-1H-benzo[d]imidazole-6-carboxylic acid] | 10.38
3 | Cc1cc(Cc2nc3ccc(C(=O)O)cc3n2[C@@H]2COCC2(C)C)c(Cl)cc1-c1ccnc(OCc2ccc(C#N)cc2F)n1 [Example 320, (S)-2-(2-chloro-4-(2-((4-cyano-2-fluorobenzyl)oxy)pyrimidin-4-yl)-5-methylbenzyl)-1-(4,4-dimethyltetrahydrofuran-3-yl)-1H-benzo[d]imidazole-6-carboxylic acid] | 9.08
4 | N#Cc1ccc(COc2cccc(-c3cc(F)c(Cc4nc5ccc(C(=O)O)cc5n4[C@@H]4COC[C@H]4C4CC4)cc3F)n2)c(F)c1 [Example 190, 2-(4-(6-((4-cyano-2-fluorobenzyl)oxy)pyridin-2-yl)-2,5-difluorobenzyl)-1-((3S,4S)-4-cyclopropyltetrahydrofuran-3-yl)-1H-benzo[d]imidazole-6-carboxylic acid] | 10.21
5 | COCCn1c(Cc2cc(F)c(-c3cccc(OCc4ccc(C#N)cc4)n3)cc2F)nc2c(F)cc(C(=O)O)cc21 [Example 382, 2-(4-(6-((4-cyanobenzyl)oxy)pyridin-2-yl)-2,5-difluorobenzyl)-4-fluoro-1-(2-methoxyethyl)-1H-benzo[d]imidazole-6-carboxylic acid] | 9.22
6 | N#Cc1ccc(COc2cccc(-c3cc(F)c(Cc4nc5ccc(C(=O)O)cc5n4[C@H]4COC[C@H]4CF)cc3F)n2)c(F)c1 [Example 172] | 9.89
7 | COC[C@@]1(C)COCC1n1c(Cc2cc(F)c(-c3cccc(OCc4ccc(Cl)cc4F)n3)cc2F)nc2ccc(C(=O)O)cc21 (single isomer, unassigned) [Example 547] | 10.62
8 | COc1cnccc1COc1cccc(-c2cc(F)c(Cc3nc4ccc(C(=O)O)cc4n3[C@@H]3COCC3(C)C)cc2F)n1 [Example 430, (S)-2-(2,5-difluoro-4-(6-((3-methoxypyridin-4-yl)methoxy)pyridin-2-yl)benzyl)-1-(4,4-dimethyltetrahydrofuran-3-yl)-1H-benzo[d]imidazole-6-carboxylic acid] | 10.70
9 | CC1(C)COC[C@H]1n1c(Cc2cc(F)c(-c3ccc(F)c(OCc4cc(F)c(C#N)cc4F)n3)cc2F)nc2c(F)cc(C(=O)O)cc21 [Example 483, (S)-2-(4-(6-((4-cyano-2,5-difluorobenzyl)oxy)-5-fluoropyridin-2-yl)-2,5-difluorobenzyl)-1-(4,4-dimethyltetrahydrofuran-3-yl)-4-fluoro-1H-benzo[d]imidazole-6-carboxylic acid] | 10.66
10 | CO[C@H]1COC[C@H]1n1c(Cc2cc(F)c(-c3cccc(OCc4ccc(Cl)cc4F)n3)cc2F)nc2ccc(C(=O)O)cc21 [Example 533, 2-(4-(6-((4-chloro-2-fluorobenzyl)oxy)pyridin-2-yl)-2,5-difluorobenzyl)-1-((3R,4R)-4-methoxytetrahydrofuran-3-yl)-1H-benzo[d]imidazole-6-carboxylic acid] | 9.30
11 | CC1(C)COC[C@H]1n1c(Cc2ccc(-c3ccc(F)c(OCc4ccc(C#N)cc4F)n3)cc2F)nc2c(F)cc(C(=O)O)cc21 [Example 337, (S)-2-(4-(6-((4-cyano-2-fluorobenzyl)oxy)-5-fluoropyridin-2-yl)-2-fluorobenzyl)-1-(4,4-dimethyltetrahydrofuran-3-yl)-4-fluoro-1H-benzo[d]imidazole-6-carboxylic acid] | 10.60
